In brackets after ≈: the same amount, converted by molar mass. Where two headings read alike, the source gives them in different places.
Key:
[1] = design: species or system New Zealand White rabbits; conditions: rabbit, in vivo
[2] = design: species or system New Zealand White rabbits; conditions: rabbit, in vivo; remark: listed apart in the source
in vivo = conditions: mouse
E. coli = assay: microbe, parasite or virus in culture; type: cell-based; conditions: Escherichia coli
S. aureus [3] = assay: microbe, parasite or virus in culture; type: cell-based; conditions: Staphylococcus aureus, read-out: lowest concentration inhibiting at least one isolate
Shigella = assay: microbe, parasite or virus in culture; type: cell-based, Shigella spp.
[4] = mouse, in vivo, ip
Leishmania donova = system: Leishmania donova; design: species or system Leishmania donova (Balb/c mice); conditions: mouse, in vivo
Candida [5] = assay: MIC in agar dilution; type: cell-based, Candida spp.; conditions: N = 2
[6] = system: Myeloma cell line (x63 balb/c line); assay: Effect on myeloma cell line; type: cell-based
Salmonella = assay: microbe, parasite or virus in culture; type: cell-based, Salmonella spp.
Cryptococcus = assay: MIC by agar diffusion method; type: cell-based, Cryptoccus spp.; conditions: N = 1
Penicillium = assay: MIC by agar diffusion method; type: cell-based, Penicillium spp.; conditions: N = 1
EPEC/ETEC [7] = assay: MIC in broth; type: cell-based, Enteropathogenic/enterotoxigenic Escherichia coli; conditions: Escherichia coli, N = 5
Tri. canis = assay: microbe, parasite or virus in culture; type: cell-based, Trichophyton canis; conditions: Trichophyton
S. aureus [8] = assay: microbe, parasite or virus in culture; type: cell-based; conditions: Staphylococcus aureus
S. epidermidis = assay: MIC by agar diffusion method; type: cell-based; conditions: Staphylococcus epidermidis
N. gonorrhoea = assay: MIC by agar diffusion method; type: cell-based, Neisseria gonorrhoea; conditions: Neisseria
lymphocytes = assay: Immunomodulatory activity, bone marrow examination; type: in vivo; conditions: Balb/c mice
EPEC/ETEC [9] = assay: MIC in agar dilution; type: cell-based, Enteropathogenic/enterotoxigenic Escherichia coli; conditions: Escherichia coli, N = 5
Candida [10] = assay: microbe, parasite or virus in culture; type: cell-based, Candida spp.
C. albicans = assay: MIC by agar diffusion method; type: cell-based; conditions: Candida albicans, N = 5
Candida [11] = assay: MIC in broth; type: cell-based, Candida spp.; conditions: N = 2
Archromobacter = assay: MIC by agar diffusion method; type: cell-based; conditions: Achromobacter, N = 1
Leishmania major = assay: Treatment of mice infected with Leishmania major; type: in vivo, Leishmania major (balb/c mice)
[12] = system: microorganisms which cause common infections; type: cell-based
human spermatozoa = assay: Effect on spermatozoa; type: cell-based
Ph. verrucose = assay: microbe, parasite or virus in culture; type: cell-based, Phialophora verrucose; conditions: Phialophora
Klebisella = assay: microbe, parasite or virus in culture; type: cell-based, Klebsiella spp.; conditions: Klebsiella
Pseudomonas = assay: microbe, parasite or virus in culture; type: cell-based, Pseudomonas spp.
Tri. violaceum = assay: microbe, parasite or virus in culture; type: cell-based, Trichophyton violaceurn; conditions: Trichophyton violaceum

CC1(C)OOC(CCC(C)(O)C2OCOO2)O1 (centres unmarked) [linalool trioxolane]
Primary Irritation Index (PII) [1]: 1.0 | ocular irritation [2]: non-irritant | LD50 (in vivo): ~3000 mg/kg

CCC1OOC(CCO)O1 (stereo not drawn) [trioxolane derivative of cis 3-hexene-1-ol]
MIC (E. coli): 120 µg/mL (≈ 810 µM) | MIC (S. aureus [3]): 31 µg/mL (≈ 209 µM) | MBC (Shigella): 1250 µg/mL (≈ 8440 µM) | minimum lethal dose [4]: 3000 mg/kg | tolerability in studies on LD50 [4]: highly tolerated | clearing parasites from the viscera compared with Pentostam (Leishmania donova): perform better than Pentostam | MIC (Candida [5]): 31 µg/mL (≈ 209 µM) | time within which myeloma cell line was killed [6]: ≤ 48 h | MBC (Salmonella): 2500 µg/mL (≈ 16900 µM) | MIC (Cryptococcus): 15 µg/mL (≈ 101 µM) | MIC (Penicillium): 310 µg/mL (≈ 2090 µM) | MIC (EPEC/ETEC [7]): 620 µg/mL (≈ 4180 µM) | MIC (Tri. canis): 150 µg/mL (≈ 1010 µM) | MBC (S. aureus [8]): 1250 µg/mL (≈ 8440 µM) | MIC (S. epidermidis; read-out: lowest concentration inhibiting at least one isolate): 31 µg/mL (≈ 209 µM) | MIC (S. epidermidis; agar diffusion, N = 14, read-out: MIC): 25 µg/mL (≈ 169 µM) | MIC (N. gonorrhoea; N = 49, number in parentheses, read-out: lowest concentration inhibiting at least one isolate): 1.9 µg/mL (≈ 12.8 µM) | MIC (N. gonorrhoea; N = 49, read-out: MIC): 3.5 µg/mL (≈ 23.6 µM) | new clones of lymphocytes in bone marrow vs mice without any drug (lymphocytes): increase in new clones of lymphocytes | MIC (EPEC/ETEC [9]): 31 µg/mL (≈ 209 µM) | MBC (Candida [10]): 1250 µg/mL (≈ 8440 µM) | MIC (C. albicans): 31 µg/mL (≈ 209 µM) | MIC (Candida [11]): 310 µg/mL (≈ 2090 µM) | MIC (Archromobacter): 60 µg/mL (≈ 405 µM) | lesions, Day 0 (Leishmania major; IP, n = 15/group): Large lesions | lesions, Day 14 (Leishmania major; IP, n = 15/group): Lesions scabbed | number dead, Day 14 (Leishmania major; IP, n = 15/group): 2 | number with palate involvement, Day 14 (Leishmania major; IP, n = 15/group): 2 | general condition, Day 14 (Leishmania major; topical, n = 15/group): Animals healthy and | lesions, Day 0 (Leishmania major; topical, n = 15/group): Large lesions | activity compared with Geraniol trioxolane [12]: more active than Geraniol trioxolane | activity compared with conventional drugs [12]: more active than conventional drugs | direct bioactivity, agar vs broth [12]: better in agar than in broth methods | effect of water on direct bioactivity [12]: significantly reduces | relationship with resistance and sensitivity to conventional antibiotics [12]: no relationship | sensitivity of all the microorganisms tested [12]: uniformly sensitive | time within which human spermatozoa were killed (human spermatozoa): ≤ 1 min | MIC (Ph. verrucose): 150 µg/mL (≈ 1010 µM) | MIC (Klebisella): 7 µg/mL (≈ 47.2 µM) | MBC (Pseudomonas): 1250 µg/mL (≈ 8440 µM) | MIC (Tri. violaceum): 150 µg/mL (≈ 1010 µM)

O.O.O.O.O.O.O.O.O.O=C([O-])[C@@H]1[O][Sb](=[O])([O][Sb]2(=[O])[O][C@H]([C@H](O)CO)[C@H](O)[C@H](C(=O)[O-])[O]2)[O][C@H]([C@H](O)CO)[C@@H]1O.[Na+].[Na+].[Na+] (some centres unmarked) [Pentostam, reference compound]
lesions, Day 14 (Leishmania major; mouse, in vivo, ip): Large lesions | number dead, Day 14 (Leishmania major; mouse, in vivo, ip): 1 | palate involvement, Day 14 (Leishmania major; mouse, in vivo, ip): involvement

— US5364879A, “Medical uses of trioxolane and diperoxide compounds” (Cliveden Ltd., priority 1994, dated 1994)
